Experiments:
[1] = biological target: Csk (Homo sapiens, UniProt P41240); assay: Kinase spectrum assay (ADP-Glo); conditions: remaining enzyme activity at 1 μm compound
Experimental: (§1) The above-prepared systems were sealed and incubated at room temperature for 2 h, and 5 μl of ADP-GLO was added to terminate the kinase reaction. Then, the culture plate was sealed and incubated in a thermostatic oscillator for 40 min to fully consume the remaining ATP. The luciferase/luciferin reaction was adopted to determine the newly generated ATP level.

[2] = biological target: PDK1 (Homo sapiens, UniProt O15530); assay: Kinase spectrum assay (ADP-Glo); conditions: remaining enzyme activity at 1 μm compound
[3] = biological target: CAMK2α (Homo sapiens, UniProt Q9UQM7); assay: Kinase spectrum assay (ADP-Glo); conditions: remaining enzyme activity at 1 μm compound
Experimental: (§2) The ADP-Glo™ kinase detection kit is a luminescence kinase detection approach that detects the amount of ADP produced by the kinase reaction. After ADP is converted into ATP, ATP can be used as the substrate of the luciferase-catalyzed reaction to generate an optical signal, which is positively correlated with kinase activity. […] The above-prepared systems were sealed and incubated at room temperature for 2 h, and 5 μl of ADP-GLO was added to terminate the kinase reaction. Then, the culture plate was sealed and incubated in a thermostatic oscillator for 40 min to fully consume the remaining ATP. The luciferase/luciferin reaction was adopted to determine the newly generated ATP level.

[4] = biological target: MAPKAPK2 (Homo sapiens, UniProt P49137); assay: Kinase spectrum assay (ADP-Glo); conditions: remaining enzyme activity at 1 μm compound
Experimental: as §2

[5] = biological target: JAK3 (Homo sapiens, UniProt P52333); assay: Kinase spectrum assay (ADP-Glo); conditions: remaining enzyme activity at 1 μm compound
Experimental: as §2

[6] = biological target: MELK (Homo sapiens, UniProt Q14680); assay: Kinase spectrum assay (ADP-Glo); conditions: remaining enzyme activity at 1 μm compound
Experimental: as §2

[7] = biological target: CDK2 (Homo sapiens, UniProt P24941); assay: Kinase spectrum assay (ADP-Glo); conditions: remaining enzyme activity at 1 μm compound
Experimental: as §2

[8] = biological target: Chk1 (Homo sapiens, UniProt O14757); assay: Kinase spectrum assay (ADP-Glo); conditions: remaining enzyme activity at 1 μm compound
[9] = biological target: Abl (Homo sapiens, UniProt P00519); assay: Kinase spectrum assay (ADP-Glo); conditions: remaining enzyme activity at 1 μm compound
Experimental: as §1

[10] = biological target: TRKA (Homo sapiens, UniProt P04629); assay: Kinase spectrum assay (ADP-Glo); conditions: remaining enzyme activity at 1 μm compound
Experimental: as §2

[11] = Aqueous solubility; assay type: physicochemical; conditions: in words

Chain of Csk (P41240 whole entry): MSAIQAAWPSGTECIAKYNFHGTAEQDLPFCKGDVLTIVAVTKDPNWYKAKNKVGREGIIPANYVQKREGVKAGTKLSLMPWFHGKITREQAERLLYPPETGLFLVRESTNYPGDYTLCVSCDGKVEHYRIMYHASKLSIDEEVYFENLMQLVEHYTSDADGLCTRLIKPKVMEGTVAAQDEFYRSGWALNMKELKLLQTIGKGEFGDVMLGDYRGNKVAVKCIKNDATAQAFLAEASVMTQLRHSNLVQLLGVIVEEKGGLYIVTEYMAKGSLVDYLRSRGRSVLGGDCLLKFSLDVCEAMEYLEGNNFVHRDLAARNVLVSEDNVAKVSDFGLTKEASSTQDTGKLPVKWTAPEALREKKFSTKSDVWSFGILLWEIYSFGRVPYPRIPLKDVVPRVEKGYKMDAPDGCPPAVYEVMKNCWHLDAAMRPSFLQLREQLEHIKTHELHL
Chain of CAMK2α (Q9UQM7 whole entry): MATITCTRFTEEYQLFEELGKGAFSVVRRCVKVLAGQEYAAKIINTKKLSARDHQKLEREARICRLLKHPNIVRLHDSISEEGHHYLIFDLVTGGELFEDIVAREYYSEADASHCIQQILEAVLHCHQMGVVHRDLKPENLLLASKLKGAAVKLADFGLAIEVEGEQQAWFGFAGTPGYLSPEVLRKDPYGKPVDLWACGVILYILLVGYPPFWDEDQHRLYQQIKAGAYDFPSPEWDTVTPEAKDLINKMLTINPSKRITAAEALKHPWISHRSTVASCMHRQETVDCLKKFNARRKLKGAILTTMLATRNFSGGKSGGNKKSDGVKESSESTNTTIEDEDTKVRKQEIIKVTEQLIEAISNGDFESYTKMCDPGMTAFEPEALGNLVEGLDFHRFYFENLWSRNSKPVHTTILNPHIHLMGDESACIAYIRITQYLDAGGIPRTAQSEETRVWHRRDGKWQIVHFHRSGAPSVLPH
Chain of Abl (P00519 whole entry): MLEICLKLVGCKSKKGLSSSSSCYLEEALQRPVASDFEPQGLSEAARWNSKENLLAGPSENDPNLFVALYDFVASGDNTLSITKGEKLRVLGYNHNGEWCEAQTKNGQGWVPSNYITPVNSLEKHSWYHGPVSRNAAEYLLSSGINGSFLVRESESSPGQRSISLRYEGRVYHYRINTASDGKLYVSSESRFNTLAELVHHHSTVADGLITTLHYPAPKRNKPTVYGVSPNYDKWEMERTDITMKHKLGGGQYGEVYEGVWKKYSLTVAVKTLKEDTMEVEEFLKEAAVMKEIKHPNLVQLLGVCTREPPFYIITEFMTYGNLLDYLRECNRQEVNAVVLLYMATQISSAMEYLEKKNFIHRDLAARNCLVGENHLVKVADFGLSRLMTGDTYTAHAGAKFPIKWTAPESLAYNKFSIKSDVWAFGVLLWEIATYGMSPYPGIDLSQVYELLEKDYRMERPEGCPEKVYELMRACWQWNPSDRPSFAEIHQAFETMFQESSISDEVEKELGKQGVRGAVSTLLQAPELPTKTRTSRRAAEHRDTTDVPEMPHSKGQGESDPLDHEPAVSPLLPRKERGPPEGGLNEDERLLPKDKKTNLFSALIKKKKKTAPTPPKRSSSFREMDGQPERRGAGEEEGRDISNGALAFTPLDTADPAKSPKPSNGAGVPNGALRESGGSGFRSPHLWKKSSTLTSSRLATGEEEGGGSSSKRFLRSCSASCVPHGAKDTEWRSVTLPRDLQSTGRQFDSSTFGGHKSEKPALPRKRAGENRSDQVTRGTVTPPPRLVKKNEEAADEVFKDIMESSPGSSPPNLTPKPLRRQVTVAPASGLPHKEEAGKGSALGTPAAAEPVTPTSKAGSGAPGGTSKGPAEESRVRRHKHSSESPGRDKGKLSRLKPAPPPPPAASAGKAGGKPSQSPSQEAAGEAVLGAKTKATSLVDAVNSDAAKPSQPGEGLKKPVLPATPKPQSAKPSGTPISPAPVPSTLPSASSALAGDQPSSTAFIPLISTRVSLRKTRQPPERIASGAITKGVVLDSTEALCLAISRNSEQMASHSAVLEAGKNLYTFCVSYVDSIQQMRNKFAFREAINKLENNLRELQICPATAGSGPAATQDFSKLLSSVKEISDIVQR
Chain of PDK1 (O15530 whole entry): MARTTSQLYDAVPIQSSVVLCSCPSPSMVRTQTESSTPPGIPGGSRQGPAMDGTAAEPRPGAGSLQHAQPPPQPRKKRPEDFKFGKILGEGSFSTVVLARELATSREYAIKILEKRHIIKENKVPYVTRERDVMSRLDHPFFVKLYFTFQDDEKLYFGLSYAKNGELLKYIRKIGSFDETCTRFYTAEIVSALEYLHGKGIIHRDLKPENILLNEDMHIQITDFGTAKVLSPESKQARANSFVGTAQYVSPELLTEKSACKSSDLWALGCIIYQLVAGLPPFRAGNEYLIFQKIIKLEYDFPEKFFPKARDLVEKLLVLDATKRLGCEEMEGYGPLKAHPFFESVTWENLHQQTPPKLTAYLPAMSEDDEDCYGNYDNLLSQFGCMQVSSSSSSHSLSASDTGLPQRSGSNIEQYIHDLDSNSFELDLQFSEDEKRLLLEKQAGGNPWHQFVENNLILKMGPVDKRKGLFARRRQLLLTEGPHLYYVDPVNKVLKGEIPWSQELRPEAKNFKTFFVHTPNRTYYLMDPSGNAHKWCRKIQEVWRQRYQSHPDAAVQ
Chain of MAPKAPK2 (P49137 whole entry): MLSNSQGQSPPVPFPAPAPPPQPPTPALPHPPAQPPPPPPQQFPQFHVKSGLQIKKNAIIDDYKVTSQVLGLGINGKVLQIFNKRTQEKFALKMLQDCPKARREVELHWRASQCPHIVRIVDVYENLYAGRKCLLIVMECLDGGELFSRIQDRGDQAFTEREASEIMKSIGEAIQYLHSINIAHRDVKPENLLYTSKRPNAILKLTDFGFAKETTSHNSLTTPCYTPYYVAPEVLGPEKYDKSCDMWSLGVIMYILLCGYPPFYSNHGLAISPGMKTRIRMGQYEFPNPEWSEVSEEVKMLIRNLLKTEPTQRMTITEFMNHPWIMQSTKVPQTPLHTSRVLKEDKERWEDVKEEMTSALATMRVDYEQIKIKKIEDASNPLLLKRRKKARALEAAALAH
Chain of JAK3 (P52333 whole entry): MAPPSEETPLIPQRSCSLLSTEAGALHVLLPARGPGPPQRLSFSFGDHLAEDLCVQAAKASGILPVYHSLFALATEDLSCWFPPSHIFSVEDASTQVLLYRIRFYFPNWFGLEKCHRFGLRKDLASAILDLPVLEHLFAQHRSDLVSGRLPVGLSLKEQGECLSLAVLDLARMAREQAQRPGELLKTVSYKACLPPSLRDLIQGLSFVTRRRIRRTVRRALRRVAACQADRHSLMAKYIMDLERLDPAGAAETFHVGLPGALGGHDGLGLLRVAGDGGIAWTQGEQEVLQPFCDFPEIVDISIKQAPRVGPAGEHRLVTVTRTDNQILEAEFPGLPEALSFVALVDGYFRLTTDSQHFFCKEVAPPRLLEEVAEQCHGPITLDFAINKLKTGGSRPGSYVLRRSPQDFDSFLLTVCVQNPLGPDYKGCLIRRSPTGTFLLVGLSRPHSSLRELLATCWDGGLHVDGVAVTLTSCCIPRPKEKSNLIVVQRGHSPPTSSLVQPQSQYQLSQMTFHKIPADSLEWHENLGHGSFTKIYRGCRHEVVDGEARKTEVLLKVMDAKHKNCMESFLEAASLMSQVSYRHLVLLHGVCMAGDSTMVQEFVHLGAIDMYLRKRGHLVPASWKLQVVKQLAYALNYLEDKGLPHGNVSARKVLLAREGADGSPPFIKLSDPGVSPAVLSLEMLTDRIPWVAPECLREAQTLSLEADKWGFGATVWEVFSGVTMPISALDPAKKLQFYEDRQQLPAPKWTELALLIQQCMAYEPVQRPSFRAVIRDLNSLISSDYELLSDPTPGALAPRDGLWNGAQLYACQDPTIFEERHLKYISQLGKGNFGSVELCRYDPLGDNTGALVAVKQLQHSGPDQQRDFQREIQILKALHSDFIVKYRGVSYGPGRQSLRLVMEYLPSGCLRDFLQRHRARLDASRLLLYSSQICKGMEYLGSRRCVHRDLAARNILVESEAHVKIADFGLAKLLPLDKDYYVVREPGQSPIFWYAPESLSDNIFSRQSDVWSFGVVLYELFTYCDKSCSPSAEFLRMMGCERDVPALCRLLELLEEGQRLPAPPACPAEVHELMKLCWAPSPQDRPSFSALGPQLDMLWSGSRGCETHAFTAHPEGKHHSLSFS
Chain of Chk1 (O14757 whole entry): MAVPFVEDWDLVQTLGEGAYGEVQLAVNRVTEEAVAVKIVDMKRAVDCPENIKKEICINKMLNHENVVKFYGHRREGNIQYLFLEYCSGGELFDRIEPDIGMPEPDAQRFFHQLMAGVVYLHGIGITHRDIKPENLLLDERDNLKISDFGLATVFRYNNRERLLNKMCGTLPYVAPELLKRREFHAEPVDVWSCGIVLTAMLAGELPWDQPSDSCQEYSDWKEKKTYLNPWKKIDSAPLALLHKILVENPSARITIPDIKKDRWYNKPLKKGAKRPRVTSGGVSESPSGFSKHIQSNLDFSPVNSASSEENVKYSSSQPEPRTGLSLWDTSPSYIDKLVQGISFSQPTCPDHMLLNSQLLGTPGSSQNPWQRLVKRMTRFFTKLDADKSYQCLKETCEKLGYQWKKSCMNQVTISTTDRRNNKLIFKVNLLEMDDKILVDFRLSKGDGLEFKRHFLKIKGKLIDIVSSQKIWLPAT

## O=C(Nc1ccc(Cl)c(C(F)(F)F)c1)Nc1ccc2ncnc(Nc3cccc(Br)c3)c2c1 [Compound 7i]
[1]
  Enzyme activity % Csk: 93.76 ± 4.09%
[2]
  Enzyme activity % PDK1: 74.18 ± 0.62%
[3]
  Enzyme activity % CAMK2α: 72.67 ± 2.92%
[4]
  Enzyme activity % MAPKAPK2: 86.46 ± 7.38%
[5]
  Enzyme activity % JAK3: 82.49 ± 1.82%
[6]
  Enzyme activity % MELK: 78.83 ± 6.55%
[7]
  Enzyme activity % CDK2: 77.40 ± 6.84%
[8]
  Enzyme activity % Chk1: 75.98 ± 6.72%
[9]
  Enzyme activity % Abl: 94.51 ± 0.41%
[10]
  Enzyme activity % TRKA: 83.52 ± 3.13%
[11]
  aqueous solubility: soluble

From publication PMC8187944, “Discovery of Potent EGFR Inhibitors With 6-Arylureido-4-anilinoquinazoline Derivatives” (Frontiers in Pharmacology, 2021)
